# Results from patent US11999739B2, “Antimicrobials methods of making and using the same” (BIOVERSYS AG, priority 2016, dated 2024).
# Tests used:
# [1] = system: Staphylococcus aureus (S. aureus) 11540 strain; assay: Standard microdilution MIC assay, S. aureus; type: cell-based
# Method: (§1) The in vitro activity of the compounds of the present disclosure can be determined. Antimicrobial testing is typically performed to determine the minimum inhibitory concentration (MIC). Minimum inhibitory concentrations (MICs) are determined by the microdilution method in a final volume of 100 μl according to protocols outlined by The Clinical and Laboratory Standards Institute (CLSI). Performance standards for reference strains are assessed within the same experimental design to maintain quality control. See, for example, Clinical Laboratory Standards Institute: Methods for dilution antimicrobial susceptibility tests for bacteria that grow aerobically M7-A8. Approved Standard-Eighth Edition. Wayne, PA: CLSI; December 2008; and Clinical Laboratory Standards Institute: Performance Standards for Antimicrobial Susceptibility Testing M100-S20; Approved Standard-Twentieth Edition. Wayne, PA: CLSI; June 2010.
# (§2) The compounds of the present disclosure were tested for antimicrobial activity. The Compounds 1-293 were run against Escherichia coli (E co/i) strain ATCC25922 and against Staphylococcus aureus (S. aureus) 11540 strain using a standard microdilution assay to determine minimum inhibitory concentrations (MICs). […] It will be recognized by one skilled in the art that the compounds can be assessed against other bacterial organisms and that the presentation of data for activity against Escherichia coli and Staphylococcus aureus are illustrative and in no way is intended to limit the scope of the present disclosure. The compounds of the present disclosure can be assayed against a range of other microorganisms depending upon the performance activity desired to be gathered. Furthermore, the “+” and “−” representation and the selection of a cutoff value of 16 micrograms/mL is also illustrative and in no way is intended to limit the scope of the present disclosure.
# [2] = system: Escherichia coli strain ATCC25922; assay: Standard microdilution MIC assay, E. coli; type: cell-based
# Method: as §1, §2
Structure (SMILES),MIC [1] [µg/mL],MIC [2] [µg/mL]
COCCOCC(=N)NCC[C@@H]1CCC[C@@H](c2ccc(-n3cc4cc(-c5cc(CCC[C@H](C)N)cc(Cl)c5F)[nH]c4nc3=O)cc2)N1 [Compound 362],≤ 16,≤ 16
C=CC(CCNC(=N)CSC)NCc1ccc(-n2cc3cc(-c4cc(CCC[C@H](C)N)cc(Cl)c4F)[nH]c3nc2=O)cc1 (some centres unmarked) [Compound 9],≤ 16,≤ 16
C[C@H](N)CCCc1cc(Cl)c(F)c(-c2cc3cn(-c4ccc([C@H]5CNC[C@@H](CCNC(=N)CF)N5)cc4)c(=O)nc3[nH]2)c1 [Compound 46],≤ 16,≤ 16
COC[C@H](N)CCCc1cc(OC(F)(F)F)c(F)c(-c2cc3cn(-c4ccc([C@@H]5CCC[C@@H](C[C@H](C)NC(C)=N)N5)cc4)c(=O)nc3[nH]2)c1 [Compound 258],≤ 16,≤ 16
C=C[C@H](N)CCCc1cc(Cl)c(F)c(-c2cc3cn(-c4ccc([C@@H]5COC[C@@H](CCNC(C)=N)N5)cc4)c(=O)nc3[nH]2)c1 [Compound 80],≤ 16,≤ 16
C=C[C@@H](N)CCCc1cc(Cl)c(F)c(-c2cc3cn(-c4ccc([C@@H]5CCC[C@@H](CCNC(C)=N)N5C)cc4)c(=O)nc3[nH]2)c1 [Compound 124],≤ 16,≤ 16
C=C[C@@H](CCNC(=N)COC)NCc1ccc(-n2cc3cc(-c4cc(CCC[C@H](C)N)cc(Cl)c4F)[nH]c3nc2=O)cc1 [Compound 53],≤ 16,≤ 16
CSCC(=N)NCC[C@@H]1CCC[C@@H](c2ccc(-n3cc4cc(-c5cc(CCC[C@H](C)N)cc(Cl)c5F)[nH]c4nc3=O)cc2)N1 [Compound 42],≤ 16,≤ 16
COC[C@H](N)CCCc1cc(Cl)c(F)c(-c2cc3cn(-c4ccc([C@@H]5CCC[C@@H](CCNC(C)=N)N5)cc4)c(=O)nc3[nH]2)c1 [Compound 160],≤ 16,≤ 16
C=CC(CCNC(C)=N)NCc1ccc(-n2cc3cc(-c4cc(CCCC(C)(C)N)cc(Cl)c4F)[nH]c3nc2=O)cc1 (centres unmarked) [Compound 6],≤ 16,≤ 16
COc1cc(-n2cc3cc(-c4cc(CCC[C@@H](N)C5CC5)cc(C(F)(F)F)c4)[nH]c3nc2=O)ccc1[C@@H]1CCC[C@@H](CCNC(C)=N)N1 [Compound 243],≤ 16,≤ 16
CSc1cc(-n2cc3cc(-c4cc(CCC[C@@H](N)C5CC5)cc(OC(F)(F)F)c4F)[nH]c3nc2=O)ccc1[C@@H]1CCC[C@@H](CCNC(C)=N)N1 [Compound 252],≤ 16,≤ 16
CN1[C@H](CCNC(=N)CF)CCC[C@H]1c1ccc(-n2cc3cc(-c4cc(CCC[C@@H](N)CO)cc(Cl)c4F)[nH]c3nc2=O)cc1 [Compound 122],≤ 16,≤ 16
CC(=N)NCC[C@@H]1CCC[C@@H](c2c(F)cc(-n3cc4cc(-c5cc(CCC[C@@H](N)CO)cc(Cl)c5F)[nH]c4nc3=O)cc2F)N1 [Compound 281],≤ 16,≤ 16
CC(=N)NCC[C@@H]1CCC[C@@H](c2ccc(-n3cc4cc(-c5cc(CCC[C@H](C)N)cc(Cl)c5F)[nH]c4nc3=O)cc2)N1CCn1ccnc1 [Compound 262],≤ 16,≤ 16
COCCC(=N)NCC[C@@H]1CCC[C@@H](c2ccc(-n3cc4cc(-c5cc(CCC[C@H](C)N)cc(Cl)c5F)[nH]c4nc3=O)cc2)N1 [Compound 348],≤ 16,≤ 16
CC(=N)NCC[C@@H]1CCC[C@@H](c2ccc(-n3cc4cc(-c5cc(CCC[C@@H](N)CO)cc(Cl)c5F)[nH]c4nc3=O)cc2S(C)(=O)=O)N1 [Compound 118],≤ 16,≤ 16
CC(=N)NCC[C@@H]1CCC[C@@H](c2ccc(-n3cc4cc(-c5cc(CCC[C@@H](N)C6CC6)cc(C(F)(F)F)c5)[nH]c4nc3=O)cc2F)N1CCCF [Compound 327],≤ 16,≤ 16
CC(=N)NCCCN[C@@H](C)c1ccc(-n2cc3cc(-c4cc(CCC(F)(F)CN)cc(Cl)c4F)[nH]c3nc2=O)cc1F [Compound 106],≤ 16,≤ 16
